# Key:
# [1] = test system: Huh7 cells; experiment: Annexin V / 7-ADD apoptosis flow cytometry, Huh7; type: cell-based; conditions: 48 h
# Experimental: (§1) To analyse apoptotic cells, we stained cells with anti-human CD56-allophycocyanin monoclonal antibodies, 7ADD, and Annexin V (BioLegend, San Diego, CA, USA) following the protocol provided by the manufacturer. Briefly, we stained cells with anti-human CD56-allophycocyanin monoclonal antibodies on ice for 10 min, washed cells with an appropriate volume of chilled Annexin V binding buffer (BioLegend), and resuspended cells in chilled Annexin V binding buffer (BioLegend) in the presence of Annexin V and 7ADD. The cells were incubated on ice for 30 min, washed with chilled Annexin V binding buffer, and analysed. Staining data were collected using a FACSCanto II Cytometer (BD Biosciences).
# [2] = test system: HepG2 cells; experiment: Annexin V / 7-ADD apoptosis flow cytometry, HepG2; type: cell-based; conditions: 48 h
# Experimental: as §1
# [3] = test system: HepG2 carcinoma; experiment: HepG2 tumour xenograft in NOD-SCID mice with or without human primary NK cells; type: in vivo, mouse; conditions: 10 mg/kg i.p.
# Text: NOD.CB17-Prkdc^scid/NCrCrl mice were purchased from Charles River Laboratories, Inc. (Wilmington, MA, USA). We used 6-8-week-old female mice in all experiments; these mice were housed in a pathogen-free animal facility. All animal experiments were approved by the Institutional Animal Use and Care Committee of the Korea Research Institute of Bioscience and Biotechnology and performed in accordance with the Guide for the Care and Use of Laboratory Animals published by the US National Institutes of Health.
# Six-week-old female NOD.CB17-Prkdc^scid/NCrCrl mice were purchased from Charles River Laboratories, Inc. Xenograft models were established by subcutaneous injection of 1 × 10^6 HepG2 cells into the right flanks of the mice. Five days after inoculation, the mice were randomly separated into groups of four. Anisomycin (10 mg/kg) was administered from day 0 to 5 and from day 15 to 20 after initiation of anisomycin treatment via the intraperitoneal (i.p) route. NK cells (5 × 10^6 cells/mouse) were transferred into mice two times on days 6 and 11 during the treatment pause period. Tumours were measured every 3 days using callipers, and their volumes were calculated according to the following formula: volume (mm^3) = (d^2 × D)/2, where d and D represent the shortest and longest tumour diameters, respectively.
# [4] = test system: SNU449 cells; experiment: EZ-Cytox Enhanced cell viability assay, SNU449; type: cell-based; conditions: 48 h exposure, read-out: IC50, cell cytotoxicity / proliferation inhibition
# Experimental: (§2) HepG2 cells were purchased from the American Type Culture Collection (ATCC, Manassas, VA, USA), and Huh7 cells and SNU449 cells were purchased from the Korean Cell Line Bank (Seoul, Korea). Cells were cultured according to the suppliers’ instructions. HepG2 cells were cultured in Eagle’s minimum essential medium (ATCC) containing 10% FBS (Life Technologies), 2 mM L-glutamine, and penicillin-streptomycin (Life Technologies) at 37 °C in 5% CO2. Huh7 and SNU449 cells were cultured in RPMI1640 (Life Technologies) containing 10% FBS (Life Technologies), 2 mM L-glutamine, and penicillin-streptomycin (Life Technologies) at 37 °C in 5% CO2. Anisomycin was purchased from Sigma-Aldrich (St. Louis, MO, USA) and dissolved at a concentration of 20 mg/mL in 100% DMSO as a stock solution. The stock solution was stored at −20 °C and diluted in medium before each experiment. […]
# (§3) Cell proliferation was assessed using an EZ-Cytox Enhanced cell viability assay kit from ITSBIO (Seoul, Republic of Korea). […] At the end of the incubation, the absorbance in each well was measured at 450 nm using a microplate reader. The relative cell viability (%) was calculated using the equation OD^T/OD^C × 100% (where OD^T represents the absorbance of the treatment group, and OD^c represents the absorbance of the control group). […]
# [5] = test system: Huh7 cells; experiment: EZ-Cytox Enhanced cell viability assay, Huh7; type: cell-based; conditions: 48 h exposure, read-out: IC50, cell cytotoxicity / proliferation inhibition
# Experimental: as §2, §3
# [6] = test system: cleaved caspase-3, cleaved PARP; experiment: Immunoblot of cleaved caspase-3 and cleaved PARP in sorted HepG2 cells; type: cell-based; conditions: HepG2, 0.2 μM 48 h
# Experimental: HepG2 cells were cultured in the presence or absence of 0.2 µM anisomycin for 2 days and harvested for cell counts. Then, 1 × 10^7 HepG2 cells were cocultured with 1 × 10^7 NK cells for 2 h and harvested by centrifugation at 1,000 rpm for 5 min. Cells were stained with anti-human CD56 monoclonal antibodies (BioLegend), washed, and resuspended in PBS containing HBSS supplemented with 4% FBS (Gibco). CD56-negative HepG2 cells were isolated to nearly 100% purity using an Aria cytometer (BD Biosciences).
# Cells were suspended in modified RIPA lysis buffer (150 mM NaCl, 1 mM EDTA, 1% Triton X-100, 1% NP-40, 0.5% sodium deoxycholate, 0.1% sodium dodecyl sulphate [SDS], and 50 mM Tris-HCl [pH 7.4]) containing a protease inhibitor cocktail (Roche, Mannheim, Germany) and phosphatase inhibitors (1 mM sodium fluoride and 2 mM sodium orthovanadate) on ice for 30 min and centrifuged at 15,000 × g for 30 min to collect whole-cell lysates. Proteins (10–20 µg) were then separated by SDS-polyacrylamide gel electrophoresis on 8‒12% gels and transferred to polyvinylidene difluoride membranes (Millipore, Bedford, MA, USA). Western blotting was performed with primary antibodies against caspase3, PARP, and β-actin (Cell Signaling Technology) and peroxidase-conjugated anti-mouse or anti-rabbit secondary antibodies. Proteins were visualized with Enhanced Chemiluminescence Plus reagents (Amersham Biosciences, Piscataway, NJ, USA).
# [7] = test system: HepG2 cells; experiment: EZ-Cytox Enhanced cell viability assay, HepG2; type: cell-based; conditions: 48 h exposure, read-out: IC50, cell cytotoxicity / proliferation inhibition
# Experimental: as §2, §3
# [8] = test system: MHC-I molecules (HLA-A, -B, and -C); experiment: Flow cytometry of MHC-I (HLA-A, -B, -C) on HCC cells; type: cell-based; conditions: 0.2 μM 48 h, HepG2, SNU449, Huh7 cells
# [9] = test system: HepG2 cells; experiment: Apoptosis of anisomycin-pre-treated HepG2 cells cocultured with NK cells (flow cytometry); type: cell-based, human; conditions: HepG2 pre-treated 0.2 μM 48 h, then NK cells 4 h, CD56-negative gate
# Text: Peripheral blood from healthy donors was obtained from the Red Cross Blood Center. We followed the guidelines of the Red Cross, and all methods and protocols involving the use of human peripheral blood were approved by the Institutional Review Board of the Red Cross. Based on the Red Cross guidelines, informed consent for study participation was obtained, and donor information was not provided. NK cells were isolated from whole blood to more than 95% purity by negative selection using a RosetteSep Human NK Cell Enrichment Cocktail (StemCell Technologies, Vancouver, Canada) according to the manufacturer’s protocol. The isolated NK cells were washed in HBSS plus 4% foetal bovine serum (FBS; Life Technologies, Carlsbad, CA, USA) and resuspended in MEM-α (Life Technologies) containing 20% FBS (Life Technologies) and penicillin-streptomycin (Life Technologies) at 37 °C in 5% CO2.
# To analyse apoptotic cells, we stained cells with anti-human CD56-allophycocyanin monoclonal antibodies, 7ADD, and Annexin V (BioLegend, San Diego, CA, USA) following the protocol provided by the manufacturer. […] The cells were incubated on ice for 30 min, washed with chilled Annexin V binding buffer, and analysed. […]
# [10] = test system: HepG2, Huh7, and SNU449 cells; experiment: Light microscopy of cell density; type: cell-based; conditions: 0.2 μM, 2 days
# Experimental: HepG2 cells were purchased from the American Type Culture Collection (ATCC, Manassas, VA, USA), and Huh7 cells and SNU449 cells were purchased from the Korean Cell Line Bank (Seoul, Korea). Cells were cultured according to the suppliers’ instructions. HepG2 cells were cultured in Eagle’s minimum essential medium (ATCC) containing 10% FBS (Life Technologies), 2 mM L-glutamine, and penicillin-streptomycin (Life Technologies) at 37 °C in 5% CO2. Huh7 and SNU449 cells were cultured in RPMI1640 (Life Technologies) containing 10% FBS (Life Technologies), 2 mM L-glutamine, and penicillin-streptomycin (Life Technologies) at 37 °C in 5% CO2. Anisomycin was purchased from Sigma-Aldrich (St. Louis, MO, USA) and dissolved at a concentration of 20 mg/mL in 100% DMSO as a stock solution. The stock solution was stored at −20 °C and diluted in medium before each experiment. […] Antibodies against caspase3, PARP, and β-actin were purchased from Cell Signaling Technology (Danvers, MA, USA).
# [11] = test system: SNU449 cells; experiment: Annexin V / 7-ADD apoptosis flow cytometry, SNU449; type: cell-based; conditions: 48 h
# Experimental: as §1
# [12] = test system: CD58; experiment: Western blot of CD58 in HCC cells; type: cell-based; conditions: 0.2 μM, HepG2, Huh7, SNU449 cells
compound,measurement,setting,value
COc1ccc(C[C@H]2NC[C@H](O)[C@H]2OC(C)=O)cc1 [anisomycin],Annexin V and 7-ADD double-positive cells (apoptotic cells),"[1]; Huh7, 0.1 μM",4.59%
same,Annexin V and 7-ADD double-positive cells (apoptotic cells),"[1]; Huh7, 0.2 μM",6.85%
same,Annexin V and 7-ADD double-positive cells (apoptotic cells),"[2]; HepG2, 0.1 μM",1.23%
same,Annexin V and 7-ADD double-positive cells (apoptotic cells),"[2]; HepG2, 0.2 μM",2.81%
same,Tumour suppression in the presence of human primary NK cells,"[3]; days 0 to 5 and 15 to 20, NK cells 5 × 10^6 cells/mouse on days 6 and 11",synergistically enhanced
same,Body weight loss and abnormal behaviours of treated mice,"[3]; days 0 to 5 and 15 to 20, NOD-SCID mice",did not show significant body weight loss or any abnormal behaviours
same,HepG2 tumour size in mice,"[3]; days 0 to 5 and 15 to 20, NOD-SCID mice, without NK cells",significantly reduced HepG2 tumour size
same,IC50,[4],138 nM
same,IC50,[5],118 nM
same,Cleaved PARP,[6]; anisomycin and NK cells,substantially increased
same,Cleaved caspase-3 protein after exposure to NK cells,[6]; then NK cells 2 h,synergistically increased
same,Level of the cleaved form of caspase-3,[6]; with or without NK cell treatment,significantly increased
same,IC50,[7],82.2 nM
same,"MHC-I molecules (HLA-A, -B, -C) at the protein level",[8],significantly downregulated
same,Annexin V and 7ADD double-positive cells (apoptotic cells) after coculture with NK cells,[9],14.00%
same,Cell densities observed by light microscopy,[10],reduced the cell densities
same,Annexin V and 7-ADD double-positive cells (apoptotic cells),"[11]; SNU449, 0.1 μM",2.24%
same,Annexin V and 7-ADD double-positive cells (apoptotic cells),"[11]; SNU449, 0.2 μM",4.94%
same,Expression of CD58 (western blot),[12],increased the expression of CD58 in all three HCC cell lines
